# Assay results as given in ChEMBL document CHEMBL1139570, “Estrogen receptor ligands: design and synthesis of new 2-arylindene-1-ones” (Bioorg Med Chem Lett, 2005).
# Columns and labels:
# Estrogen receptor = molecular target: T1, Estrogen receptor (Homo sapiens, UniProt P03372)
# T1 sequence (P03372 whole entry): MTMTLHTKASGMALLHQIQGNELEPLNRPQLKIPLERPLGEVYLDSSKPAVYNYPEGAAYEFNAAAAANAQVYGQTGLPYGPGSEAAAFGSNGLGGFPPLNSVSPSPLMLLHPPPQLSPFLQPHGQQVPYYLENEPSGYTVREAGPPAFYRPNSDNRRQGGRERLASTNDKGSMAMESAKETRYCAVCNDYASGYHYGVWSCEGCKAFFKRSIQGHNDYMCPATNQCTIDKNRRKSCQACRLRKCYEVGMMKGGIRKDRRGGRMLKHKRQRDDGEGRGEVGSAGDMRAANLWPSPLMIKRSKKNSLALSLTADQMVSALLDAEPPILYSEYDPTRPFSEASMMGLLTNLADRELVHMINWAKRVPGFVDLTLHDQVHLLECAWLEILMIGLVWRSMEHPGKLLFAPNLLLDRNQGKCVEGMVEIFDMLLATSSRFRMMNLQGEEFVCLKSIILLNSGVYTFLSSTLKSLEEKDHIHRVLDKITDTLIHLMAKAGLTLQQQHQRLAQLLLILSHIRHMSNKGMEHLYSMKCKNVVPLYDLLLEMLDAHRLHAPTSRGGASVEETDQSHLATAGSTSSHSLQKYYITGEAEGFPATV
# Description: Inhibition of human estrogen receptor alpha
# Estrogen receptor beta = Estrogen receptor beta (Homo sapiens, UniProt Q92731)
# Chain of Estrogen receptor beta (Q92731 whole entry): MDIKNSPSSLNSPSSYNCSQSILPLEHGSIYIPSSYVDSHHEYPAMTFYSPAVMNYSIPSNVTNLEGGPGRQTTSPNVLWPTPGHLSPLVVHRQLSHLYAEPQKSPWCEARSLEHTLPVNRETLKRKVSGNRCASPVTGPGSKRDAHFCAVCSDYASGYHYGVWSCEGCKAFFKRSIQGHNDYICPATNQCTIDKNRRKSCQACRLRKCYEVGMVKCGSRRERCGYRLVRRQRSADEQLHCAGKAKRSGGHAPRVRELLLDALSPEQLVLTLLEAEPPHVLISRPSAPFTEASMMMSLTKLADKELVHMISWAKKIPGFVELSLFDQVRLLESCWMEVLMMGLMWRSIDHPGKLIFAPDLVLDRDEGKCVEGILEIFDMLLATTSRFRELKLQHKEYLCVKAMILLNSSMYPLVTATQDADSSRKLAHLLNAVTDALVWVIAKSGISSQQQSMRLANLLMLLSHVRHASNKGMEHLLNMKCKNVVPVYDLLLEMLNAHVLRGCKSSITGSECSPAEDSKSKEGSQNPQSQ
# Description: Inhibition of human estrogen receptor beta
Compound,IC50 (Estrogen receptor) [nM],IC50 (Estrogen receptor beta) [nM]
NC1=C(c2ccc(O)cc2)C(=O)c2cc(O)ccc21,> 5000,1150
CC/N=C1/C(c2ccc(O)cc2)=C(O)c2cc(O)cc(O)c21,> 5000,2700
O=C1C(c2ccc(O)cc2)=C(O)c2ccc(O)cc21,> 5000,
O=C1C(c2ccc(O)cc2)=C(O)c2cc(O)cc(O)c21,> 5000,
COc1ccc2c(c1)C(Br)=C(c1ccc(O)cc1)C2=O,1800,199
CC1=C(c2ccc(O)cc2)C(=O)c2c(O)cc(O)cc21,,2.4

# The remaining compounds from weak to strong by IC50 (Estrogen receptor), led by results:
IC50 (Estrogen receptor) [nM],IC50 (Estrogen receptor beta) [nM],Compound
580,150,CCSC1=C(c2ccc(O)cc2)C(=O)c2cc(O)cc(O)c21
480,,CCSC1=C(c2ccc(O)cc2)C(=O)c2ccc(O)cc21
10,10,O=C1C(c2ccc(O)cc2)=C(c2ccccc2)c2cc(O)ccc21
9,9,O=C1C(c2ccc(O)cc2)=C(c2ccccc2)c2ccc(O)cc21
5.2,1.7,O=C1C(c2ccc(O)cc2)=C(Br)c2cc(O)ccc21
3.1,1.3,CSC1=C(c2ccc(O)cc2)C(=O)c2ccc(O)cc21
